Assay results taken from US7163941B2, “Pyrido[2,3-d]pyrimidin-7-carboxylic acid derivatives, their manufacture and use as pharmaceutical agents” (Hoffmann-La Roche Inc., priority 2003, dated 2007).

How the values were obtained:
Lck (p56^lck, active) = target: T1, Lck (p56^lck, active) (Homo sapiens, UniProt P06239); test: SRC-Inhibitor-Assay (time-resolved fluorescence), Lck enzyme; type: biochemical; details: ATP 5 μM, peptide 10 μM, enzyme 2.5 U/ml, pre-incubation 15 min at 15° C.
T1 construct: purchased Upstate (UBI)
T1 sequence (P06239 whole entry, species assumed): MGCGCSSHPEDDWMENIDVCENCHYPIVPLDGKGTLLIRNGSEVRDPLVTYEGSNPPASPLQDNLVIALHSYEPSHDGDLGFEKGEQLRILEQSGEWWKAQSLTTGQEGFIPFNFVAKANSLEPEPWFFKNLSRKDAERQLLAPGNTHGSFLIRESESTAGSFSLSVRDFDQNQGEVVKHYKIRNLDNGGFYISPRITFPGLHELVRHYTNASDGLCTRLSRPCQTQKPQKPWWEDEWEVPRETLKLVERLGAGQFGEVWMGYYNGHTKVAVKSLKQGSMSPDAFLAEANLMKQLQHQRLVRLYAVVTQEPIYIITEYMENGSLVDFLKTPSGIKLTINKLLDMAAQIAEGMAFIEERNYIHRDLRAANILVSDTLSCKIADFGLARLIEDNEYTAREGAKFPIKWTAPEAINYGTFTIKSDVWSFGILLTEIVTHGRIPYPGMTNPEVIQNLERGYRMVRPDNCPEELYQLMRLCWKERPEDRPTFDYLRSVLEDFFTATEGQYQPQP
Method: (§1) The activity of the compounds according to this invention as inhibitors for the src-family tyrosine kinases was shown by using the following assay.
(§2) SRC-Inhibitor-Assay Parameters:
(§3) • Reaction mixture: • ATP 5 μM • Peptide (R+Ja133-Ro): 10 μM • Ja133-Ro 196 nM • Ro 9.8 μM • PT66 230 ng/ml • Assay buffer: 4 mM MgCl2 • 2 mM TCEP • 50 mM HEPES • 0,1% Tween 20 • pH 7.3 • Enzyme: 2.5 U/ml • Inhibitor: max. 25 μM • min. 0.42 nM Material: • Eu-labelled phosphotyrosine antibody: -for Lck Cisbio Mab PT66-K, • for Src EG&G Wallac PT66 Eu-W1024 (all commercially available). • Peptides: Ro: NH2-A-E-E-E-I-Y-G-E-F-E-A-K-K-K-K-CONH2 (SEQ ID NO: 1), and • Ja133-Ro: Ja133-G-Aminocaprylic acid-A-E-E-E-I-Y-G-E-F-E-A-K-K-K-K-CONH2 (SEQ ID NO: 2), wherein Ja133 is LightCycler-Red 640-N-hydroxy succinimide ester; • whereby both peptides were synthesized by an optimized solid phase peptide synthesis protocol (Merrifield, Fed. Proc. Fed. Amer. Soc. Exp. Biol. 21 (1962) 412) on a Zinsser SMP350 peptide synthesizer. Shortly, the peptide was assembled on 160 mg (22.8 μmol scale) of a Rink-Linker modified polystyrene solid phase by repeatedly conjugating an twenty fold excess of aminoacids each protected by temporary piperidine labile Fmoc- and permanent acid labile tert-Bu-, BOC- and Otert-Bu-groups depending on the side chain function. The substrate sequence AEEEIYGEFEAKKKK (SEQ ID NO: 1) was N-terminal additionally mounted with the spacer amino acids Aminocaprylic acid and Glycin. After cleavage of the N-terminal temporary protecting group the still attached and protected peptide was labeled with a 1.5 fold amount of LightCycler-Red 640-N-hydroxy succinimide ester (purchased by Roche Diagnostics GmbH) and triethylamine. After 3 hrs. the resin was washed with Dimethylformamide and Isopropanol until the eluates of the blue resin got colo-rless. […] The substrate was finally isolated by a preparative reverse phase HPLC purification. The purification yielded 12.2 mg RP-HPLC single peak pure blue material (lyophilisate). The identity was proven by MALDI mass spectroscopy [2720.0]. • Enzymes: Upstate Lck (p56^lck, active), Upstate Src (p60^c-src, partially purified) were purchased from UBI. • Time-resolved Fluorescence Assay: Reader: Perkin Elmer, Wallac Viktor 1420-040 multilabel counter; Liquid handling system: Beckman Coulter, Biomek 2000. ATP, Tween 20, HEPES were purchased from Roche Molecular Biochemicals, MgCl2 and MnCl2 were purchased from Merck Eurolab, TCEP was purchased from Pierce, 384 Well low volume fluorescence plates was purchased from Falcon. Assay Description:
(§4) At first the enzyme is pre-incubated for 15 min. at 15° C. in aqueous solution with corresponding amounts of inhibitors according to this invention. Then the phosphorylation reaction is started by adding a reaction mixture, containing ATP, Peptide and PT66, and subsequent shaking. The proceeding of this reaction is immediately monitored using time resolved fluorescence spectroscopy in a suitable well plate reader.
(§5) The IC50-values can be obtained from the reaction rates by using a non-linear curve fit (Excelfit).

[1] = target: T2, Src (p60^c-src, partially purified) (Homo sapiens, UniProt P12931); test: SRC-Inhibitor-Assay (time-resolved fluorescence), Src enzyme; type: biochemical; details: ATP 5 μM, peptide 10 μM, enzyme 2.5 U/ml, pre-incubation 15 min at 15° C.
T2 construct: purchased Upstate (UBI)
T2 sequence (P12931 whole entry, species assumed): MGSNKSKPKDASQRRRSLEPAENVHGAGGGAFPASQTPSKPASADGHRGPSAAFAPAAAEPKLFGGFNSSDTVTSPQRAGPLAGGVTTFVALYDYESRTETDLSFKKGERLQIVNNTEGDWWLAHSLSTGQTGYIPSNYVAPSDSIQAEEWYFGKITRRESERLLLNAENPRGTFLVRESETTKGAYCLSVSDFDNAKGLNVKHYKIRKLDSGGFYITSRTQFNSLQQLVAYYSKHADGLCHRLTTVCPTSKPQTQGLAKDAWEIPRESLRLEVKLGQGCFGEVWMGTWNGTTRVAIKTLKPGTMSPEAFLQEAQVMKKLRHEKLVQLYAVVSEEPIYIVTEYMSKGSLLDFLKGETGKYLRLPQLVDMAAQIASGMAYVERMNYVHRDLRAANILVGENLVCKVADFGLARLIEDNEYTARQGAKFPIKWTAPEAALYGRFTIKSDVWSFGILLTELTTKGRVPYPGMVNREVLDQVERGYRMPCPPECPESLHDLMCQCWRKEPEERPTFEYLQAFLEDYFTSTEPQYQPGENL
Method: as §1, §2, §3, §4, §5

SMILES | IC50 (Lck (p56^lck, active)) | IC50 [1]
O=C(NC1CCNCC1)c1nc2nc(Nc3ccc(N4CCOCC4)cc3)ncc2cc1-c1ccccc1Br [Example 1, 6-(2-Bromo-phenyl)-2-(4-morpholin-4-yl-phenylamino)-pyrido[2,3-d]pyrimidine-7-carboxylic acid piperidin-4-ylamide] | 60.1 nM | 10.7 nM
CCN(CC)CCOc1ccc(Nc2ncc3cc(-c4ccccc4Br)c(C(N)=O)nc3n2)cc1 [Example 3-2, 6-(2-Bromo-phenyl)-2-[4-(2-diethylamino-ethoxy)-phenylamino]-pyrido[2,3-d]pyrimidine-7-carboxylic acid amide] | 12.5 nM | 4.4 nM
CN(C)CCNC(=O)c1nc2nc(Nc3ccc(N4CCOCC4)cc3)ncc2cc1-c1ccccc1Br [Example 3-9, 6-(2-Bromo-phenyl)-2-(4-morpholin-4-yl-phenylamino)-pyrido[2,3-d]pyrimidine-7-carboxylic acid (2-dimethylamino-ethyl)-amide] | 12.1 nM | 0.9 nM
CCN(CC)CCOc1ccc(Nc2ncc3cc(-c4ccccc4Br)c(C(=O)NCCN(C)C)nc3n2)cc1 [Example 3-10, 6-(2-Bromo-phenyl)-2-[4-(2-diethylamino-ethoxy)-phenylamino]-pyrido[2,3-d]pyrimidine-7-carboxylic acid (2-dimethylamino-ethyl)-amide] | 3.7 nM | 1.6 nM
O=C(NC1CCNCC1)c1nc2nc(Nc3ccc(F)cc3)ncc2cc1-c1ccccc1Br [Example 3-11, 6-(2-Bromo-phenyl)-2-(4-fluoro-phenylamino)-pyrido[2,3-d]pyrimidine-7-carboxylic acid piperidin-4-ylamide] | 774 nM | 66.1 nM
CN(C)CCNC(=O)c1nc2nc(Nc3ccc(F)cc3)ncc2cc1-c1ccccc1Br [Example 3-12, 6-(2-Bromo-phenyl)-2-(4-fluoro-phenylamino)-pyrido[2,3-d]pyrimidine-7-carboxylic acid (2-dimethylamino-ethyl)-amide] | 350 nM | 34.1 nM
COCCNC(=O)c1nc2nc(Nc3ccc(F)cc3)ncc2cc1-c1ccccc1Br [Example 3-13, 6-(2-Bromo-phenyl)-2-(4-fluoro-phenylamino)-pyrido[2,3-d]pyrimidine-7-carboxylic acid (2-methoxy-ethyl)-amide] | 360 nM | 114 nM
CN(C)CCCNC(=O)c1nc2nc(Nc3ccc(F)cc3)ncc2cc1-c1ccccc1Br [Example 3-14, 6-(2-Bromo-phenyl)-2-(4-fluoro-phenylamino)-pyrido[2,3-d]pyrimidine-7-carboxylic acid (3-dimethylamino-propyl)-amide] | 233 nM | 21.7 nM
CN(C)CC(C)(C)CNC(=O)c1nc2nc(Nc3ccc(F)cc3)ncc2cc1-c1ccccc1Br [Example 3-15, 6-(2-Bromo-phenyl)-2-(4-fluoro-phenylamino)-pyrido[2,3-d]pyrimidine-7-carboxylic acid (3-dimethylamino-2,2-dimethyl-propyl)-amide] | 218 nM | 41.5 nM
CC(=O)NCCNC(=O)c1nc2nc(Nc3ccc(F)cc3)ncc2cc1-c1ccccc1Br [Example 3-16, 6-(2-Bromo-phenyl)-2-(4-fluoro-phenylamino)-pyrido[2,3-d]pyrimidine-7-carboxylic acid (2-acetylamino-ethyl)-amide] | 189 nM | 81.4 nM
CNCCNC(=O)c1nc2nc(Nc3ccc(F)cc3)ncc2cc1-c1ccccc1Br [Example 3-17, 6-(2-Bromo-phenyl)-2-(4-fluoro-phenylamino)-pyrido[2,3-d]pyrimidine-7-carboxylic acid (2-methylamino-ethyl)-amide] | 39.8 nM | 6.2 nM
CN(C)CCN(C)C(=O)c1nc2nc(Nc3ccc(F)cc3)ncc2cc1-c1ccccc1Br [Example 3-19, 6-(2-Bromo-phenyl)-2-(4-fluoro-phenylamino)-pyrido[2,3-d]pyrimidine-7-carboxylic acid (2-dimethylamino-ethyl)-methyl-amide] | 357 nM | 200 nM
CN1CCC(NC(=O)c2nc3nc(Nc4ccc(F)cc4)ncc3cc2-c2ccccc2Br)CC1 [Example 3-21, 6-(2-Bromo-phenyl)-2-(4-fluoro-phenylamino)-pyrido[2,3-d]pyrimidine-7-carboxylic acid (1-methyl-piperidin-4-yl)-amide] | 638 nM | 96.2 nM
O=C(NCCN1CCOCC1)c1nc2nc(Nc3ccc(F)cc3)ncc2cc1-c1ccccc1Br [Example 3-22, 6-(2-Bromo-phenyl)-2-(4-fluoro-phenylamino)-pyrido[2,3-d]pyrimidine-7-carboxylic acid (2-morpholin-4-yl-ethyl)-amide] | 662 nM | 158 nM

Second part, the compound after the results:

IC50 (Lck (p56^lck, active)) | IC50 [1] | SMILES
159 nM | 33 nM | CS(=O)(=O)c1cccc(Nc2ncc3cc(-c4ccccc4Br)c(C#N)nc3n2)c1 [Example 2, 6-(2-Bromo-phenyl)-2-(3-methanesulfonyl-phenylamino)-pyrido[2,3-d]pyrimidine-7-carbonitrile]
23 nM | 3 nM | NC(=O)c1nc2nc(Nc3ccc(N4CCOCC4)cc3)ncc2cc1-c1ccccc1Br [Example 3-1, 6-(2-Bromo-phenyl)-2-(4-morpholin-4-yl-phenylamino)-pyrido[2,3-d]pyrimidine-7-carboxylic acid amide]
– | 7.8 nM | CSc1cccc(Nc2ncc3cc(-c4ccccc4Br)c(C(N)=O)nc3n2)c1 [Example 3-3, 6-(2-Bromo-phenyl)-2-(3-methylsulfanyl-phenylamino)-pyrido[2,3-d]pyrimidine-7-carboxylic acid amide]
73.8 nM | 6.9 nM | NC(=O)c1nc2nc(Nc3ccc(S(N)(=O)=O)cc3)ncc2cc1-c1ccccc1Br [Example 3-4, 6-(2-Bromo-phenyl)-2-(4-sulfamoyl-phenylamino)-pyrido[2,3-d]pyrimidine-7-carboxylic acid amide]
110 nM | 35.7 nM | CNS(=O)(=O)Cc1cccc(Nc2ncc3cc(-c4ccccc4Br)c(C(N)=O)nc3n2)c1 [Example 3-5, 6-(2-Bromo-phenyl)-2-(3-methylsulfamoylmethyl-phenylamino)-pyrido[2,3-d]pyrimidine-7-carboxylic acid amide]
145 nM | 22.5 nM | NC(=O)c1nc2nc(Nc3cccc(S(=O)(=O)CCO)c3)ncc2cc1-c1ccccc1Br [Example 3-6, 6-(2-Bromo-phenyl)-2-[3-(2-hydroxy-ethanesulfonyl)-phenylamino]-pyrido[2,3-d]pyrimidine-7-carboxylic acid amide]
113 nM | 16.6 nM | CS(=O)(=O)c1cccc(Nc2ncc3cc(-c4ccccc4Br)c(C(N)=O)nc3n2)c1 [Example 3-7, 6-(2-Bromo-phenyl)-2-(3-methanesulfonyl-phenylamino)-pyrido[2,3-d]pyrimidine-7-carboxylic acid amide]
32.3 nM | 1.7 nM | CSc1cccc(Nc2ncc3cc(-c4ccccc4Br)c(C(=O)NCCN(C)C)nc3n2)c1 [Example 3-8, 6-(2-Bromo-phenyl)-2-(3-methylsulfanyl-phenylamino)-pyrido[2,3-d]pyrimidine-7-carboxylic acid (2-dimethylamino-ethyl)-amide]
68.4 nM | 24.8 nM | NC(=O)NNC(=O)c1nc2nc(Nc3ccc(F)cc3)ncc2cc1-c1ccccc1Br [Example 3-18, 1-[6-(2-Bromo-phenyl)-2-(4-fluoro-phenylamino)-pyrido[2,3-d]pyrimidine-7-carbonyl]semicarbazide]
289 nM | 62.4 nM | NC(=O)CNC(=O)c1nc2nc(Nc3ccc(F)cc3)ncc2cc1-c1ccccc1Br [Example 3-20, 6-(2-Bromo-phenyl)-2-(4-fluoro-phenylamino)-pyrido[2,3-d]pyrimidine-7-carboxylic acid carbamoylmethyl-amide]
